The text below walks through data of patent US20140023611A1 (priority 2010, published 2014).

pIC50: −log10 of the molar value.

One experiment has as its target T1, human NaP2b (SLC34A2) (Homo sapiens, UniProt O95436).
T1 construct: host or cells: HEK293
T1 sequence (O95436 1-690): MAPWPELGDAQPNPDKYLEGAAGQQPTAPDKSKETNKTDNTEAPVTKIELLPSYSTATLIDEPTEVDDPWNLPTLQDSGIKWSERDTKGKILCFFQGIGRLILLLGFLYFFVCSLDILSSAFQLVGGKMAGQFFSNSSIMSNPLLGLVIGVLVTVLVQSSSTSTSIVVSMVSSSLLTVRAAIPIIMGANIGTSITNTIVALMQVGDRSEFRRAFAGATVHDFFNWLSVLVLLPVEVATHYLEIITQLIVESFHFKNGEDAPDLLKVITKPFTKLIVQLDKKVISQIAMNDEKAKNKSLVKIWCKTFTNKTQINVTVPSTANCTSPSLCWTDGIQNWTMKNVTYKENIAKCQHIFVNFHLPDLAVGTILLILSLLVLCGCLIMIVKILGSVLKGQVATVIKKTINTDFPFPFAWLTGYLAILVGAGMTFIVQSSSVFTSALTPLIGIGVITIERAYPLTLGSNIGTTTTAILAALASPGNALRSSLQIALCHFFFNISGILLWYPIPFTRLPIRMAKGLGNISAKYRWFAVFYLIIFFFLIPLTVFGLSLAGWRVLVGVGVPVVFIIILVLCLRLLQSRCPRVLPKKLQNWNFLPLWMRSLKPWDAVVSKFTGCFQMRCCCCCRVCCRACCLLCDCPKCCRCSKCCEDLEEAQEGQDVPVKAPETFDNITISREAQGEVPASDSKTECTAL
As to the kind of experiment: Inhibition of NaP2b-mediated Pi (33P) uptake in transfected HEK293 cells, human NaP2b. The following applies: read-out: pIC50 range for human NaP2b (converted). In kind it is cell-based. The essentials:
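HEK293 cells transiently transfected with human NaP2b (Thr inserted after residue 37, N39D), endogenous PiT transport pharmacologically silenced. Sodium or choline buffer, pH 7.4, with 100 uM KH2PO4, 33P orthophosphate and compound (0.1 nM–30 uM, twelve concentrations, duplicate). 3-30 min at room temperature, scintillation counting, pIC50 derived.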

The next experiment concerns the target T2, rat NaP2b (SLC34A2) (Rattus norvegicus, UniProt Q9JJ09).
T2 construct: host or cells: HEK293
T2 sequence (Q9JJ09 1-695): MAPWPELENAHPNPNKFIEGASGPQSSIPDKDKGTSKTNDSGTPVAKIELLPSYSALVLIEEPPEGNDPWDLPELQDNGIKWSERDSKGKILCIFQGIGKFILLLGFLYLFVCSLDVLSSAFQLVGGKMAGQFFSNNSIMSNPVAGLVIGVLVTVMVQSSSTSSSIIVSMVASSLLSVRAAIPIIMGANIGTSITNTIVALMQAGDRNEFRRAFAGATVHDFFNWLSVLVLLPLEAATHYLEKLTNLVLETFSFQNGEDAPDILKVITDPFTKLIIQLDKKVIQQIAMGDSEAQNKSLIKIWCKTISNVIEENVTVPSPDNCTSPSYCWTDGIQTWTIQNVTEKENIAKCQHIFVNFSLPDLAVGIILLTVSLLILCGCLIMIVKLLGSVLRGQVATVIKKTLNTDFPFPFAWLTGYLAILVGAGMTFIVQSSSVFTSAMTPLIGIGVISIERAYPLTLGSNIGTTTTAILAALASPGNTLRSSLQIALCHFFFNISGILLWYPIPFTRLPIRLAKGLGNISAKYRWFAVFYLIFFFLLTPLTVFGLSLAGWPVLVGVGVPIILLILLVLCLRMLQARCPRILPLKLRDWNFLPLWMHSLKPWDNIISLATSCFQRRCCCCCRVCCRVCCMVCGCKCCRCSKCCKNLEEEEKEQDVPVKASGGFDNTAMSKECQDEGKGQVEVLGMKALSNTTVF
As to the kind of experiment: Inhibition of NaP2b-mediated Pi (33P) uptake in transfected HEK293 cells, rat NaP2b. In kind it is cell-based. To be noted: 33P Pi uptake, 0.1 mM phosphate, value given as pIC50 range. The essentials:
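HEK293 cells were transiently transfected with NaP2b cDNA using Lipofectamine and grown near confluence. Compounds were tested at twelve concentrations from 0.1 nM to 30 uM in duplicate, and 33P-phosphate uptake was counted by scintillation after lysis. Results are expressed as pIC50.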

A word on the pIC50: it is −log10 of the IC50, conventionally taken in molar units. Low values mean a large IC50, high ones a small IC50. Regarding `O=C(O)CCOCCOCCOCCOCCCc1cccc(SCc2cccc(C(=O)Nc3ccc(N4CCCCC4)cc3-c3cc(C(=O)N[C@H]4CCCc5ccccc54)ccn3)c2)c1` [Example 247, 3-(2-(2-(2-(3-(3-((30S)-3-((2-(4-(((S)-1,2,3,4-tetrahydronaphthalen-1-yl)carbamoyl)pyridin-2-yl)-4-(piperidin-1-yl)phenyl)carbamoyl)benzylthio)phenyl)propoxy)ethoxy)ethoxy)ethoxy)propanoic acid], the IC50 on human NaP2b (SLC34A2) was 1000 to 7940 nM. Besides, the negative-log IC50 (pIC50) at rat NaP2b (SLC34A2) is 5.10 to 6.00.
Turning to `CCN(CC)c1ccc(NC(=O)c2cccc(CCCOCCOCCOCCOCCC(=O)N3CCC[C@H](C(=O)N(C)CCOCCOCCOCCOCCOCCOCCOC)C3)c2)c(-c2cc(C(=O)NCc3cccc(C(F)(F)F)c3)ccn2)c1` [Example 257, (S)-2-(2-(3-(16-(3-(2,5,8,11,14,17,20-heptaoxadocosan-22-yl(methyl)carbamoyl)piperidin-1-yl)-16-oxo-4,7,10,13-tetraoxahexadecyl)benzamido)-5-(diethylamino)phenyl)-N-(3-(trifluoromethyl)benzyl)isonicotinamide], at human NaP2b (SLC34A2), the IC50 is below 1000 nM. At rat NaP2b (SLC34A2), this compound had a pIC50 of 5.10 to 6.00.
For `CCN(CC)c1ccc(NC(=O)c2cccc(CCCOCCOCCOCCOCCC(=O)N3CCN(c4ccc(OCCOCCOCCOC)cc4)CC3)c2)c(-c2cc(C(=O)NCc3cccc(C(F)(F)F)c3)ccn2)c1` [Example 263, 2-(5-(diethylamino)-2-(3-(16-(4-(4-(2-(2-(2-methoxyethoxy)ethoxy)ethoxy)phenyl)piperazin-1-yl)-16-oxo-4,7,10,13-tetraoxahexadecyl)benzamido)phenyl)-N-(3-(trifluoromethyl)benzyl)isonicotinamide] the same measures were below 1000 nM and 5.10 to 6.00.
For `CCN(CC)c1ccc(NC(=O)c2cccc(C#CCOCCOCCOCCOCCO)c2)c(-c2cc(C(=O)NCc3cccc(C(F)(F)F)c3)ccn2)c1` [Example 266, 2-(5-(diethylamino)-2-(3-(1-hydroxy-3,6,9,12-tetraoxapentadec-14-yn-15-yl)benzamido)phenyl)-N-(3-(trifluoromethyl)benzyl)isonicotinamide] the same measures were 1000 to 7940 nM and 5.10 to 6.00.
For `CCN(CC)c1ccc(NC(=O)c2cccc(CCCOCCOCCOCCOCCO)c2)c(-c2cc(C(=O)NCc3cccc(C(F)(F)F)c3)ccn2)c1` [Example 267, 2-(5-(diethylamino)-2-(3-(1-hydroxy-3,6,9,12-tetraoxapentadecan-15-yl)benzamido)phenyl)-N-(3-(trifluoromethyl)benzyl)isonicotinamide] the same measures were below 1000 nM and above 6.00.
Turning to `CCN(CC)c1ccc(NC(=O)c2cccc(C#CCOCCOCCOCCOCCOCCOCCOCCOCCOC)c2)c(-c2cc(C(=O)NCc3cccc(C(F)(F)F)c3)ccn2)c1` [Example 268, 2-(2-(3-(2,5,8,11,14,17,20,23,26-nonaoxanonacos-28-yn-29-yl)benzamido)-5-(diethylamino)phenyl)-N-(3-(trifluoromethyl)benzyl)isonicotinamide], the IC50 on human NaP2b (SLC34A2) was below 1000 nM. Besides, the negative logarithm of the IC50 (pIC50) at rat NaP2b (SLC34A2) is above 6.00.
In the case of `CCN(CC)c1ccc(NC(=O)c2cccc(CCCOCCOCCOCCOCCNC(=O)N(C)CCOCCOCCOCCOCCOCCOCCOC)c2)c(-c2cc(C(=O)NCc3cccc(C(F)(F)F)c3)ccn2)c1` [Example 273, 2-(5-(diethylamino)-2-(3-(23-methyl-24-oxo-2,5,8,11,14,17,20,28,31,34,37-undecaoxa-23,25-diazatetracontan-40-yl)benzamido)phenyl)-N-(3-(trifluoromethyl)benzyl)isonicotinamide], at human NaP2b (SLC34A2), the IC50 was 1000 to 7940 nM. In addition, the pIC50 against rat NaP2b (SLC34A2) is 5.10 to 6.00.
As to `CCN(CC)c1ccc(NC(=O)c2cccc(CCCOCCOCCOCCOCCNC(=O)N(CCO)CCO)c2)c(-c2cc(C(=O)NCc3cccc(C(F)(F)F)c3)ccn2)c1` [Example 274, 2-(5-(diethylamino)-2-(3-(1-hydroxy-3-(2-hydroxyethyl)-4-oxo-8,11,14,17-tetraoxa-3,5-diazaicosan-20-yl)benzamido)phenyl)-N-(3-(trifluoromethyl)benzyl)isonicotinamide], on human NaP2b (SLC34A2), the IC50 is 1000 to 7940 nM. Besides, on rat NaP2b (SLC34A2), the pIC50 is 5.10 to 6.00.
In the same order, the values of `COCCOCCOCCOCCOCCOCCOCCN(C)C(=O)CCOCCOCCOCCOCCCc1cccc(C(=O)Nc2ccc(N3CCCCC3)cc2-c2cc(C(=O)NCc3cccc(C(F)(F)F)c3)ccn2)c1` [Example 276] are 1000 to 7940 nM and 5.10 to 6.00.
`O=C(NCc1cccc(C(F)(F)F)c1)c1ccnc(-c2cc(N3CCCCC3)ccc2NC(=O)c2cccc(CCCOCCOCCOCCOCCC(=O)N(CCO)CCO)c2)c1` [Example 277]: the IC50 on human NaP2b (SLC34A2) is 1000 to 7940 nM. This compound gave a negative-log IC50 (pIC50) on rat NaP2b (SLC34A2) of 5.10 to 6.00.
For `O=C(CCOCCOCCOCCOCCCc1cccc(C(=O)Nc2ccc(N3CCCCC3)cc2-c2cc(C(=O)NCc3cccc(C(F)(F)F)c3)ccn2)c1)NC(CO)(CO)CO` [Example 278] the same measures were 1000 to 7940 nM and 5.10 to 6.00.
For `CCN(CC)c1ccc(NC(=O)c2cccc(CCCOCCOCCOCCOCCC(=O)NCCOCCOCCOCCOCCOCCOCCOCCOC)c2)c(-c2cc(C(=O)N[C@H]3CCCc4ccccc43)ccn2)c1` [Example 279] the same measures were 1000 to 7940 nM and 5.10 to 6.00.
With `CCN(CC)c1ccc(NC(=O)c2cccc(CCCOCCOCCOCCOCCC(=O)N(C)CCOCCOCCOCCOCCOCCOCCOC)c2)c(-c2cc(C(=O)N[C@H]3CCCc4ccccc43)ccn2)c1` [Example 280], the IC50 at human NaP2b (SLC34A2) is below 1000 nM. On rat NaP2b (SLC34A2), this compound had a negative logarithm of the IC50 (pIC50) above 6.00.
In the same order, the values of `CCN(CC)c1ccc(NC(=O)c2cccc(CCCOCCOCCOCCOCCC(=O)N(CCO)CCO)c2)c(-c2cc(C(=O)N[C@H]3CCCc4ccccc43)ccn2)c1` [Example 282] are 1000 to 7940 nM and above 6.00.
For `CCN(CC)c1ccc(NC(=O)c2cccc(CCCOCCOCCOCCOCCC(=O)NC(CO)(CO)CO)c2)c(-c2cc(C(=O)N[C@H]3CCCc4ccccc43)ccn2)c1` [Example 283] the same measures were 1000 to 7940 nM and above 6.00.
For `CC(C)(C)OC(=O)CCOCCOCCOCCOCCCc1cccc(C(=O)Nc2ccc(OC3CCC3)cc2-c2cc(C(=O)N[C@H]3CCCc4ccccc43)ccn2)c1` [Example 284, (S)-tert-butyl 16-(3-((4-cyclobutoxy-2-(4-((1,2,3,4-tetrahydronaphthalen-1-yl)carbamoyl)pyridin-2-yl)phenyl)carbamoyl)phenyl)-4,7,10,13-tetraoxahexadecan-1-oate] the same measures were 1000 to 7940 nM and 5.10 to 6.00.
On to `CCN(CC)c1ccc(NC(=O)c2cccc(CCCOCCOCCOCCOCCNS(=O)(=O)c3cccc(C(=O)O)c3)c2)c(-c2cc(C(=O)NCc3cccc(C(F)(F)F)c3)ccn2)c1` [Example 289, 3-(N-(15-(3-(4-(diethylamino)-2-(4-(3-(trifluoromethyl)benzylcarbamoyl)pyridin-2-yl)phenylcarbamoyl)phenyl)-3,6,9,12-tetraoxapentadecyl)sulfamoyl)benzoic acid], for which the IC50 on human NaP2b (SLC34A2) was 1000 to 7940 nM. Besides, the negative logarithm of the IC50 (pIC50) on rat NaP2b (SLC34A2) was 5.10 to 6.00.
In the same order, the values of `CCN(CC)c1ccc(NC(=O)c2cccc(CCCOCCOCCOCCOCCC(=O)N3CCN(S(=O)(=O)c4ccc(C(=O)O)cc4)CC3)c2)c(-c2cc(C(=O)NCc3cccc(C(F)(F)F)c3)ccn2)c1` [Example 290, 4-(4-(16-(3-(4-(diethylamino)-2-(4-(3-(trifluoromethyl)benzylcarbamoyl)pyridin-2-yl)phenylcarbamoyl)phenyl)-4,7,10,13-tetraoxahexadecane)piperazin-1-ylsulfonyl)benzoic acid] are 1000 to 7940 nM and 4.50 to 5.00.
